Data as given in the NIST ThermoML archive (doi:10.1016/j.jct.2007.11.009).
Numbers after ± are expanded uncertainties.

Test: xn = mol fraction of the nth substance listed
Conditions: Liquid, Vibrating tube method, x2 = 0

c1ccccc1 [benzene] + CCCCCCCC
mass density [kg/m3]
Conditions	298.15 K	308.15 K	318.15 K	328.15 K
100 kPa	873.5 ± 0.2	862.9 ± 0.2	852.3 ± 0.2	841.5 ± 0.2
2130 kPa	875.1 ± 0.2	864.7 ± 0.2	854.2 ± 0.2	843.6 ± 0.2
4150 kPa	876.7 ± 0.2	866.4 ± 0.2	856.1 ± 0.2	845.6 ± 0.2
6180 kPa	878.4 ± 0.2	868.2 ± 0.2	857.9 ± 0.2	847.5 ± 0.2
8210 kPa	879.9 ± 0.2	869.9 ± 0.2	859.7 ± 0.2	849.5 ± 0.3
10230 kPa	881.5 ± 0.2	871.6 ± 0.3	861.5 ± 0.3	851.3 ± 0.3
11250 kPa	882.3 ± 0.2	872.4 ± 0.3	862.4 ± 0.3	852.3 ± 0.3
12260 kPa	883.1 ± 0.3	873.2 ± 0.3	863.2 ± 0.3	853.2 ± 0.3
14290 kPa	884.6 ± 0.3	874.8 ± 0.3	865 ± 0.3	855 ± 0.3
16310 kPa	886.1 ± 0.3	876.4 ± 0.3	866.6 ± 0.3	856.8 ± 0.3
18340 kPa	887.6 ± 0.3	878 ± 0.3	868.3 ± 0.3	858.6 ± 0.3
20370 kPa	889.1 ± 0.3	879.5 ± 0.3	869.9 ± 0.3	860.3 ± 0.3
22390 kPa	890.5 ± 0.3	881.1 ± 0.3	871.6 ± 0.3	862 ± 0.3
24420 kPa	892 ± 0.3	882.6 ± 0.3	873.2 ± 0.3	863.7 ± 0.3
26450 kPa	893.4 ± 0.3	884 ± 0.3	874.7 ± 0.3	865.3 ± 0.3
28470 kPa	894.7 ± 0.3	885.5 ± 0.3	876.2 ± 0.3	866.9 ± 0.3
29490 kPa	895.4 ± 0.3	886.2 ± 0.3	877 ± 0.3	867.8 ± 0.3
30500 kPa	896.1 ± 0.3	886.9 ± 0.3	877.8 ± 0.3	868.6 ± 0.3
32530 kPa	897.5 ± 0.3	888.4 ± 0.3	879.2 ± 0.3	870.1 ± 0.3
34550 kPa	898.8 ± 0.3	889.7 ± 0.3	880.7 ± 0.3	871.7 ± 0.3
36580 kPa	900.1 ± 0.3	891.1 ± 0.3	882.1 ± 0.3	873.1 ± 0.3
38600 kPa	901.4 ± 0.3	892.5 ± 0.3	883.6 ± 0.3	874.7 ± 0.3
39620 kPa	902 ± 0.3	893.2 ± 0.3	884.3 ± 0.3	875.4 ± 0.3
